# Experimental data taken from US10501805B2, “Methods for determining responsiveness to MEK/ERK inhibitors” (CROWN BIOSCIENCE, INC. (TAICANG), priority 2014, dated 2019).
# How the values were obtained:
# Experiment in all cases: CellTiter-Glo cell viability, IC50 determination
# Format in all cases: cell-based
# Calu6 = conditions: Homo sapiens, Calu-6, 72 h; Calu6 cell line; 3-day CTG assay; read-out: Absolute IC50
# Description: (§1) All the cells will be cultured in the media supplemented with 10% FBS except for which are marked specially, in the temperature of 37° C., 5% CO2 and 95% humidity.
# (§2) Cell viability is assayed by using CellTiter-Glo® Luminescent Cell Viability Assay Kit (Cat. No.: G7572, Promega. Store at −20° C.). To prepare the CellTiter_Glo Reagent, the CellTiter-Glo Buffer was thawed and equilibrated to room temperature prior to use. For convenience the CellTiter-Glo Buffer may be thawed and stored at room temperature for up to 48 hours prior to use. The lyophilized CellTiter-Glo Substrate is equilibrated to room temperature prior to use. The appropriate volume (100 ml) of CellTiter-Glo Buffer is transferred into the amber bottle containing CellTiter-Glo Substrate to reconstitute the lyophilized enzyme/substrate mixture, which forms the CellTiter-Glo Reagent. In certain cases, the entire liquid volume of the CellTiter-Glo Buffer bottle may be added to the CellTiter-Glo Substrate vial. Mix by gently vortexing, swirling or by inverting the contents to obtain a homogeneous solution. The CellTiter-Glo Substrate should go into solution easily in less than one minute.
# (§3) The day before the experiment (Day −1), cells were dissociated during the logarithmic growth period with Cell Disassociation Buffer (Gibco 13151-014) and mixed with appropriate cell media and centrifuge at 1000 rpm for 3 minutes. The cells were re-suspended and counted using Countstar before adjusting cell concentrations to optimized density (i.e. 4.44×10^4 cells/ml) with respective culture medium listed in Table 1 for 3-day CTG assay (The cell density was optimized before actual study; cell density used in the test may vary for different cell lines). 90 μl cell suspensions were added to two 96-well plates (plates A and B) with the final cell density of 4×10^3 cells/well for 3-day CTG assay (the cell density was optimized before actual study; cell density used in the test may vary for different cell lines). The plate A and B group were incubated for overnight in humidified incubator at 37° C. with 5% CO2.
# (§4) On Day 0, for plate A group, 10 μl culture medium was added to each well for T0 reading. CellTiter-Glo® Reagent was added at equal volume of cell culture medium present in each well (e.g., add 100 μl of reagent to 100 μl of medium containing cells for a 96-well plate). Contents were mixed for 2 minutes on an orbital shaker to facilitate cell lysis. The plate was allowed to incubate at room temperature for 10 minutes to stabilize luminescent signal. Backseal black sticker was added to the bottom of each plate. Luminescence was recorded using EnVision Multi Label Reader. This formed the basis for T0 value.
# (§5) On Day 0, the test articles and positive controls were dissolved at the concentration indicated at Test Article Dilution map. 100× solution in PBS was prepared and then diluted with appropriate culture media (1:10) into 10×working solutions. 10 μl (10×) drug solutions were dispensed in each well (triplicate for each drug concentration) of the plate B group according to plate inoculation map. The test plates were incubated for […] in the humidified incubator at 37° with 5% CO2.
# (§6) On Day 3, CellTiter-Glo® Reagent was added at equal volume of cell culture medium present in each well (e.g., add 100 μl of reagent to 100 μl of medium containing cells for a 96-well plate). Contents were mixed for 2 minutes on an orbital shaker to induce cell lysis. The plate was allowed to incubate at room temperature for 10 minutes to stabilize luminescent signal. Backseal black sticker was placed to the bottom of each plate. Luminescence was recorded using EnVision Multi Label Reader.
# (§7) In order to calculate IC50s, a dose-response curve was fitted using a nonlinear regression model with a sigmoidal dose response. The formula for calculating surviving rate was shown below; Absolute IC50 is calculated where Y axis set at 50% using GraphPad Prism 5.0. Software. […]
# DLD-1 = conditions: Homo sapiens, 72 h; DLD-1 cell line; 3-day CTG assay; read-out: Absolute IC50
# Description: as §1, §2, §3, §4, §5, §6, §7
# HCT-15 = conditions: Homo sapiens, 72 h; HCT-15 cell line; 3-day CTG assay; read-out: Absolute IC50
# Description: as §1, §2, §3, §4, §5, §6, §7
# HCT-8 = conditions: Homo sapiens, 72 h; HCT-8 cell line; 3-day CTG assay; read-out: Absolute IC50
# Description: as §1, §2, §3, §4, §5, §6, §7
# HM-7 = conditions: 72 h; HM-7 cell line; 3-day CTG assay; read-out: Absolute IC50
# Description: as §1, §2, §3, §4, §5, §6, §7
# HT29 = conditions: Homo sapiens, HT-29, 72 h; HT29 cell line; 3-day CTG assay; read-out: Absolute IC50
# Description: as §1, §2, §3, §4, §5, §6, §7
# Hep3B = conditions: Homo sapiens, 72 h; Hep3B cell line; 3-day CTG assay; read-out: Absolute IC50
# Description: as §1, §2, §3, §4, §5, §6, §7
# KYSE150 = conditions: Homo sapiens, KYSE-150, 72 h; KYSE150 cell line; 3-day CTG assay; read-out: Absolute IC50
# Description: as §1, §2, §3, §4, §5, §6, §7
# LoVo = conditions: Homo sapiens, 72 h; LoVo cell line; 3-day CTG assay; read-out: Absolute IC50
# Description: as §1, §2, §3, §4, §5, §6, §7
# NCI-H1792 = conditions: Homo sapiens, 72 h; NCI-H1792 cell line; 3-day CTG assay; read-out: Absolute IC50
# Description: as §1, §2, §3, §4, §5, §6, §7
# NCI-H2009 = conditions: Homo sapiens, 72 h; NCI-H2009 cell line; 3-day CTG assay; read-out: Absolute IC50
# Description: as §1, §2, §3, §4, §5, §6, §7
# NCI-H23 = conditions: Homo sapiens, 72 h; NCI-H23 cell line; 3-day CTG assay; read-out: Absolute IC50
# Description: as §1, §2, §3, §4, §5, §6, §7
# NCI-H358 = conditions: Homo sapiens, 72 h; NCI-H358 cell line; 3-day CTG assay; read-out: Absolute IC50
# Description: as §1, §2, §3, §4, §5, §6, §7
# RKO = conditions: Homo sapiens, 72 h; RKO cell line; 3-day CTG assay; read-out: Absolute IC50
# Description: as §1, §2, §3, §4, §5, §6, §7
# SW620 = conditions: Homo sapiens, SW-620, 72 h; SW620 cell line; 3-day CTG assay; read-out: Absolute IC50
# Description: as §1, §2, §3, §4, §5, §6, §7
# Sk-Mel-5 = conditions: Homo sapiens, 72 h; Sk-Mel-5 cell line; 3-day CTG assay; read-out: Absolute IC50
# Description: as §1, §2, §3, §4, §5, §6, §7
IC50 (Calu6) [nM],IC50 (DLD-1) [nM],IC50 (HCT-15) [nM],IC50 (HCT-8) [nM],IC50 (HT29) [nM],IC50 (Hep3B) [nM],IC50 (LoVo) [nM],IC50 (NCI-H1792) [nM],IC50 (NCI-H2009) [nM],IC50 (NCI-H23) [nM],IC50 (NCI-H358) [nM],IC50 (SW620) [nM],SMILES,IC50 (HM-7) [nM],IC50 (KYSE150) [nM],IC50 (RKO) [nM],IC50 (Sk-Mel-5) [nM]
560,52800,15600,1270,230,250,410,4700,4360,3690,520,260,"O=C(Nc1ccc2[nH]nc(-c3ccncc3)c2c1)[C@@H]1CCN(CC(=O)N2CCN(c3ccc(-c4ncccn4)cc3)CC2)C1 [SCH772984, (R)-1-(2-oxo-2-(4-(4-(pyrimidin-2-yl)phenyl)piperazin-1-yl)ethyl)-N-(3-(pyridin-4-yl)-1H-indazol-5-yl)pyrrolidine-3-carboxamide]",790,1720,17500,200
140,6520,29300,50,10,50,110,160,410,300,50,10,"CC(=O)Nc1cccc(-n2c(=O)n(C3CC3)c(=O)c3c(Nc4ccc(I)cc4F)n(C)c(=O)c(C)c32)c1 [Trametinib, N-(3-{3-Cyclopropyl-5-[(2-fluoro-4-iodophenyl)amino]-6,8-dimethyl-2,4,7-trioxo-3,4,6,7-tetrahydropyrido[4,3-d]pyrimidin-1(2H)-yl}phenyl)acetamide]",390,5280,6700,10
